This note sets out measurements from ChEMBL document CHEMBL1158659, “The alkaloids of Delphinium cashmirianum” (J Nat Prod, 1979).

The structures appear in SMILES notation.

For data set [1], the system named is Oryctolagus cuniculus. Briefly: Cardiovascular activity in Albino rabbit assessed as change in heart rate tested at basal heart rate of 185 beats/min at 5.0 mg/kg, iv by physiograph 4. It counts as functional.
Data set [2] has as its system Oryctolagus cuniculus. Put plainly: Cardiovascular activity in Albino rabbit assessed as change in heart rate tested at basal heart rate of 185 beats/min at 0.25 mg/kg, iv by physiograph 4. In kind it is functional.
Data set [3] deals with Oryctolagus cuniculus. Put plainly: Cardiovascular activity in Albino rabbit assessed as sinusoidal heart rate tested at basal heart rate of 200 beats/min at 0.05 mg/kg, iv by physiograph 4. It counts as functional.
For data set [4], the system named is Oryctolagus cuniculus. Put plainly: Cardiovascular activity in Albino rabbit assessed as change in heart rate tested at basal heart rate of 185 beats/min at 0.50 mg/kg, iv by physiograph 4. The following applies: dose 0.5 mg/kg. In kind it is functional.
Data set [5] deals with Oryctolagus cuniculus. Put plainly: Cardiovascular activity in Albino rabbit assessed as change in heart rate tested at basal heart rate of 200 beats/min at 0.25 mg/kg, iv by physiograph 4. In kind it is functional.
In data set [6] the test system is Oryctolagus cuniculus. Briefly: Cardiovascular activity in Albino rabbit assessed as change in heart rate tested at basal heart rate of 200 beats/min at 0.10 mg/kg, iv by physiograph 4. In kind it is functional. The following applies: dose 0.1 mg/kg.
Data set [7] relates to Oryctolagus cuniculus. Put plainly: Cardiovascular activity in Albino rabbit assessed as change in heart rate tested at basal heart rate of 200 beats/min at 0.50 mg/kg, iv by physiograph 4. In kind it is functional. The following applies: dose 0.5 mg/kg.
For data set [8], the system named is Oryctolagus cuniculus. Put plainly: Cardiovascular activity in Albino rabbit assessed as change in heart rate tested at basal heart rate of 185 beats/min at 0.10 mg/kg, iv by physiograph 4. It counts as functional. Conditions: dose 0.1 mg/kg.
Data set [9] concerns Oryctolagus cuniculus. Briefly: Cardiovascular activity in Albino rabbit assessed as sinusoidal heart rate tested at basal heart rate of 185 beats/min at 0.05 mg/kg, iv by physiograph 4. It counts as functional.
The test system of data set [10] is Oryctolagus cuniculus. Briefly: Cardiovascular activity in Albino rabbit assessed as change in heart rate tested at basal heart rate of 185 beats/min at 1.0 mg/kg, iv by physiograph 4. It counts as functional.
Data set [11] relates to Oryctolagus cuniculus. Put plainly: Cardiovascular activity in Albino rabbit assessed as change in heart rate tested at basal heart rate of 195 beats/min at 0.25 mg/kg, iv by physiograph 4. In kind it is functional.
The subject of data set [12] is Oryctolagus cuniculus. Briefly: Cardiovascular activity in Albino rabbit assessed as change in heart rate tested at basal heart rate of 195 beats/min at 0.50 mg/kg, iv by physiograph 4. In kind it is functional. Conditions: dose 0.5 mg/kg.
The test system of data set [13] is Oryctolagus cuniculus. Put plainly: Cardiovascular activity in Albino rabbit assessed as change in heart rate tested at basal heart rate of 180 beats/min at 0.50 mg/kg, iv by physiograph 4. In kind it is functional. Conditions: dose 0.5 mg/kg.
The subject of data set [14] is Oryctolagus cuniculus. Briefly: Cardiovascular activity in Albino rabbit assessed as change in heart rate tested at basal heart rate of 195 beats/min at 0.10 mg/kg, iv by physiograph 4. It counts as functional. The following applies: dose 0.1 mg/kg.
In data set [15] the test system is Oryctolagus cuniculus. Put plainly: Cardiovascular activity in Albino rabbit assessed as change in heart rate tested at basal heart rate of 180 beats/min at 0.25 mg/kg, iv by physiograph 4. In kind it is functional.
Data set [16] relates to Oryctolagus cuniculus. Put plainly: Cardiovascular activity in Albino rabbit assessed as change in heart rate tested at basal heart rate of 195 beats/min at 1.0 mg/kg, iv by physiograph 4. In kind it is functional.
Data set [17] relates to Oryctolagus cuniculus. Briefly: Cardiovascular activity in Albino rabbit assessed as change in heart rate tested at basal heart rate of 180 beats/min at 0.10 mg/kg, iv by physiograph 4. It counts as functional. The following applies: dose 0.1 mg/kg.
The subject of data set [18] is Oryctolagus cuniculus. Briefly: Cardiovascular activity in Albino rabbit assessed as change in heart rate tested at basal heart rate of 200 beats/min at 1.0 mg/kg, iv by physiograph 4. It counts as functional.
Data set [19] concerns Oryctolagus cuniculus. Briefly: Cardiotoxicity in iv dosed Albino rabbit assessed as drug level to produce arrhythmias tested at basal heart rate of 170 beats/min. The following applies: in vivo. In kind it is toxicity, organism-based.
Data set [20] has as its system Oryctolagus cuniculus. Briefly: Cardiovascular activity in Albino rabbit assessed as change in heart rate tested at basal heart rate of 180 beats/min at 1.0 mg/kg, iv by physiograph 4. It counts as functional.
In data set [21] the test system is Oryctolagus cuniculus. Briefly: Cardiotoxicity in iv dosed Albino rabbit assessed as time to produce arrhythmias tested at basal heart rate of 170 beats/min. It counts as toxicity, organism-based. Conditions: in vivo.
Data set [22] deals with Oryctolagus cuniculus. Put plainly: Cardiotoxicity in iv dosed Albino rabbit assessed as drug level to produce arrhythmias tested at basal heart rate of 180 beats/min. It counts as toxicity, organism-based. The following applies: in vivo.
Data set [23] has as its system Oryctolagus cuniculus. Briefly: Cardiotoxicity in iv dosed Albino rabbit assessed as time to produce arrhythmias tested at basal heart rate of 180 beats/min. It counts as toxicity, organism-based. The following applies: in vivo.
The subject of data set [24] is Oryctolagus cuniculus. Briefly: Cardiovascular activity in Albino rabbit assessed as change in heart rate tested at basal heart rate of 170 beats/min at 0.10 mg/kg, iv by physiograph 4. It counts as functional. Conditions: dose 0.1 mg/kg.
The test system of data set [25] is Oryctolagus cuniculus. Briefly: Cardiovascular activity in Albino rabbit assessed as change in heart rate tested at basal heart rate of 170 beats/min at 1.0 mg/kg, iv by physiograph 4. It counts as functional.
Data set [26] relates to Oryctolagus cuniculus. Briefly: Cardiovascular activity in Albino rabbit assessed as change in heart rate tested at basal heart rate of 170 beats/min at 0.25 mg/kg, iv by physiograph 4. It counts as functional.
The test system of data set [27] is Oryctolagus cuniculus. Briefly: Cardiovascular activity in Albino rabbit assessed as change in heart rate tested at basal heart rate of 170 beats/min at 0.50 mg/kg, iv by physiograph 4. In kind it is functional. The following applies: dose 0.5 mg/kg.

As to `CCN1C[C@]2(C=O)CC[C@H](OC)[C@@]34[C@@H]5C[C@@H]6[C@@H](OC)C[C@@](O)(C5[C@H]6OC)[C@](O)([C@@H](OC)[C@H]23)[C@@H]14` [LYCOCTONAL], the Activity in the data set with Oryctolagus cuniculus [1] is on record as -10 bpm; in the data set on Oryctolagus cuniculus [2], 0 bpm; in the data set with Oryctolagus cuniculus [3] it was -3 bpm; in the data set on Oryctolagus cuniculus [4] it was 0 bpm; with Oryctolagus cuniculus [5], 0 bpm; in the data set on Oryctolagus cuniculus [6], 0 bpm. Further, the Activity is on record as 0 bpm in the data set with Oryctolagus cuniculus [7], -5 bpm in the data set with Oryctolagus cuniculus [8], 0 bpm in the data set on Oryctolagus cuniculus [9] and 0 bpm with Oryctolagus cuniculus [10].
For `CCN1C[C@]2(COC(=O)c3ccccc3N3C(=O)CCC3=O)CC[C@H](OC)[C@]34C1[C@](O)([C@@H](OC)[C@H]23)[C@@]1(O)C[C@H](OC)[C@H]2C[C@@H]4[C@@H]1[C@H]2OC` [LYCACONITINE], the Activity in the data set on Oryctolagus cuniculus [11] is recorded as 5 bpm; with Oryctolagus cuniculus [12], 0 bpm; in the data set on Oryctolagus cuniculus [13], -10 bpm; in the data set on Oryctolagus cuniculus [14], 3 bpm; in the data set with Oryctolagus cuniculus [15], 0 bpm; in the data set on Oryctolagus cuniculus [16], -5 bpm. The Activity in the data set with Oryctolagus cuniculus [17] is -10 bpm.
As to `CCN1C[C@]2(CO)CC[C@H](OC)[C@@]34[C@@H]5C[C@H]6[C@H](OC)[C@@H]5[C@](O)(C[C@@H]6OC)[C@](O)([C@@H](OC)[C@H]23)[C@@H]14` [LYCOCTONINE], the Activity in the data set with Oryctolagus cuniculus [4] is 0 bpm; with Oryctolagus cuniculus [5], 5 bpm; in the data set with Oryctolagus cuniculus [18], 0 bpm; in the data set on Oryctolagus cuniculus [6], 5 bpm; with Oryctolagus cuniculus [7], 0 bpm; in the data set with Oryctolagus cuniculus [8] it was -25 bpm.
As to `CCN1C[C@]2(OC(=O)c3ccccc3N)CC[C@H](OC)[C@@]34[C@@H]2C[C@H]([C@@H]13)[C@@]1(O)C[C@H](OC)[C@H]2C[C@@H]4[C@]1(O)[C@H]2OC`, the Activity in the data set with Oryctolagus cuniculus [19] is 1 mg/kg; with Oryctolagus cuniculus [20], 0 bpm; with Oryctolagus cuniculus [21], 52 s; with Oryctolagus cuniculus [22] it was 1 mg/kg; in the data set with Oryctolagus cuniculus [23], 85 s; in the data set with Oryctolagus cuniculus [24], 8 bpm. Further, the Activity in the data set with Oryctolagus cuniculus [25] came out at 0 bpm; in the data set with Oryctolagus cuniculus [26], 5 bpm; in the data set on Oryctolagus cuniculus [27] it was 0 bpm.
In the case of `CCN1C[C@]2(COC(=O)c3ccccc3N)CC[C@H](OC)[C@]34C1[C@](O)([C@@H](OC)[C@H]23)[C@@]1(O)C[C@H](OC)[C@H]2C[C@@H]4[C@@H]1[C@H]2OC` [ANTHRANOYLLYCOCTONINE], the Activity in the data set on Oryctolagus cuniculus [25] is -5 bpm; in the data set with Oryctolagus cuniculus [26], 8 bpm; in the data set with Oryctolagus cuniculus [27], 5 bpm.
